Results published in patent US10800816B2 (Baxalta GmbH, priority 2012, dated 2020).
Bridges are numbered along the chain shown (N, C = ends). [ ]: non-standard residue; d: D form. Aib = CC(C)(N)C(=O)O

How the values were obtained:
fl-TFPI / ASGPR = target: T1, fl-TFPI / ASGPR (Homo sapiens, UniProt P10646); experiment: BIAcore: fl-TFPI binding to ASGPR in presence of peptide; conditions: 1 μM peptide
T1 sequence (P10646 29-304): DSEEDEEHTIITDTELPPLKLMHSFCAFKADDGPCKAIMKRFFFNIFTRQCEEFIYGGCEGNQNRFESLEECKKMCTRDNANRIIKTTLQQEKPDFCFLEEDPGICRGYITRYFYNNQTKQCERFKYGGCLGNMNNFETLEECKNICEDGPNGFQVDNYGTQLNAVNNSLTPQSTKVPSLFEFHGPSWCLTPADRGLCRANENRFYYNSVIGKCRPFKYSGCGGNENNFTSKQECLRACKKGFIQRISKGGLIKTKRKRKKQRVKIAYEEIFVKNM

[1] = tested on: FVIII-inhibited whole blood; experiment: Rotation thromboelastography (ROTEM) in whole blood; parameters: species or system human; conditions: concentrations above 100 nM; 2 nM and 10 nM full length TFPI added
in vitro = conditions: human, plasma
TFPI [2] = target: T2, TFPI (Homo sapiens, UniProt P10646); experiment: Plasma-based thrombin generation assay (calibrated automated thrombography), human plasma; conditions: 50-100 nM peptide; 10 nM flTFPI, FVIII-inhibited plasma
T2 sequence (P10646 29-304): T1 sequence (P10646 29-304)

TFPI [3] = target: T2, TFPI; experiment: FXa inhibition by TFPI in presence of Ca2+, phospholipid and protein S; format: biochemical; conditions: 50 nM peptide; PL+Ca2++protein S
Method: The effects of TFPI binding peptides on the anticoagulant activity of TFPI was tested in model systems (inhibition of FXa and TF-FVIIa-catalysed FX activation by TFPI) and in plasma (NP, PPP, PRP or TFPI-depleted plasma reconstituted with recombinant- or platelet-TFPI or platelets). […] […])/kobs in which At is absorbance at 405 nm at time t; A0 is initial absorbance at 405 nm; vs is final steady-state velocity; v0 is initial velocity; kobs is apparent rate constant for the transition from v0 to vs (FXa-TFPI to FXa-TFPI*). The values v0 and vs relative to rates of chromogenic substrate conversion by FXa in the absence of TFPI, represent the extent of loose and tight FXa-TFPI complex formation.

fl-TFPI / LRP = target: T3, fl-TFPI / LRP (Homo sapiens, UniProt P10646); experiment: BIAcore: fl-TFPI binding to LRP in presence of peptide; conditions: 1 μM peptide, 10 nM fl-TFPI
T3 sequence (P10646 29-304): T1 sequence (P10646 29-304)
T3 sequence (Q07954 852-1182 partner limits assumed): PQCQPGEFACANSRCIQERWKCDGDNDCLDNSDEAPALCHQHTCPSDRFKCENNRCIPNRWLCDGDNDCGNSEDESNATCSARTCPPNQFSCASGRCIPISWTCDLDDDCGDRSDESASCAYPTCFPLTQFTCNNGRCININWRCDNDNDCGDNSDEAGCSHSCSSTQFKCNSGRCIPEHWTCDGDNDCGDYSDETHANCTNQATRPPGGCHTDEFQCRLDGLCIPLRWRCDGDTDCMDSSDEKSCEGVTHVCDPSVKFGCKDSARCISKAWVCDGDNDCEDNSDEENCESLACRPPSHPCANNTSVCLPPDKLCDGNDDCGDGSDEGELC

cynomolgus TFPI 1-160 = experiment: FXa inhibition assay with cynomolgus monkey TFPI 1-160; format: biochemical
neutrophil elastase = experiment: Proteolytic degradation of fl-TFPI by neutrophil elastase; format: biochemical, human; conditions: 1 μM peptide, 5 nM fl-TFPI, 5 nM elastase, up to 60 minutes
TFPI [4] = experiment: Extrinsic tenase inhibition assay; conditions: Table 19; 0.0625 nM TFPI
TFPI [5] = experiment: FXa inhibition assay (human TFPI); conditions: all human TFPI concentrations tested (up to 10 nM)
platelet TFPI = target: T4, platelet TFPI (Homo sapiens, UniProt P10646); experiment: TF-FVIIa-catalysed FX activation inhibited by platelet TFPI; format: biochemical; conditions: 50 nM peptide
T4 construct: from tissue; donor PPP and PRP
T4 sequence (P10646 29-304): T1 sequence (P10646 29-304)

TFPI [6] = target: T2, TFPI; experiment: koff assay; format: binding; conditions: 24 hour incubation
HUVEC TFPI = target: T5, HUVEC TFPI (Homo sapiens, UniProt P10646); experiment: Cell-based extrinsic tenase assay (HUVEC); conditions: relative to 100 nM polyclonal anti-human TFPI antibody = 100%
T5 construct: endogenous in cells; host or cells: HUVEC stimulated with TNFα
T5 sequence (P10646 29-304): T1 sequence (P10646 29-304)

[7] = target: T6, plasma- and platelet TFPI (Homo sapiens, UniProt P10646); experiment: Thrombin generation in platelet-poor and platelet-rich plasma; format: biochemical
T6 construct: from tissue; donor PPP and PRP
T6 sequence (P10646 29-304): T1 sequence (P10646 29-304)

**Q.** With “Ac-FQSK[dP]NVHVDGYFERL[Aib]AKLSSSSSSSSSSSYYKWHCAMRDMKGTMTCVWVKF-NH2 (disulfide 37-48 (inferred)) [JBT2547]” as the substance, how does the “fl-TFPI interaction with ASGPR in presence of peptide” value (fl-TFPI / ASGPR) read?
**A.** interacted with ASGPR

**Q.** And the “restoration of coagulation with added full length TFPI” value [1]?
**A.** fully restored normal coagulation of FVIII-inhibited whole blood

**Q.** And the remaining at 24 h (in vitro)?
**A.** 54%

**Q.** And the “compensation of added flTFPI” value (TFPI [2])?
**A.** fully compensated the anticoagulant effect of 10 nM flTFPI

**Q.** What about the “blocking of TFPI” value (TFPI [3]) of the same substance?
**A.** almost completely blocked TFPI

**Q.** What about the “fl-TFPI interaction with LRP in presence of peptide” value (fl-TFPI / LRP) of the same substance?
**A.** higher response than that observed for TFPI complexed with single peptides

**Q.** And the “reduction of EC50 compared to JBT1857” value (cynomolgus TFPI 1-160)?
**A.** approximately 200 fold

**Q.** And the “reduction of EC50 compared to the combination of JBT1837 and JBT1857” value (cynomolgus TFPI 1-160)?
**A.** ~10 fold

**Q.** What about the “Cynomolgus Monkey TFPI 1-160 Maximal inhibition (%)” value (cynomolgus TFPI 1-160; Table 20) of the same substance?
**A.** 100%

**Q.** What about the “effect on proteolysis of fl-TFPI by neutrophil elastase” value (neutrophil elastase) of the same substance?
**A.** proteolysis of fl-TFPI was blocked during the monitored time

**Q.** What about the “Extrinsic Tenase Assay Maximal inhibition (%)” value (TFPI [4]) of the same substance?
**A.** 99%

**Q.** And the “inhibition of TFPI activity” value (TFPI [5])?
**A.** 100%

**Q.** What about the “blocking of platelet TFPI inhibition of TF-FVIIa-catalysed FX activation” value (platelet TFPI) of the same substance?
**A.** completely blocked the anticoagulant activity of TFPI

**Q.** What about the “blocking of tracer JBT2271 binding after incubation” value (TFPI [6]) of the same substance?
**A.** continued to block binding of the tracer to TFPI

**Q.** And the “concentration achieving full inhibition of TFPI” value (HUVEC TFPI)?
**A.** about 10 nM

**Q.** And the “enhancement of thrombin generation” value ([7]; PPP)?
**A.** 3-4 fold

**Q.** And the “concentration sufficient to fully inhibit TFPI” value ([7]; PPP and PRP)?
**A.** 5 to 10 nM

**Q.** And the “enhancement of thrombin generation” value ([7]; PRP with inhibitory FVIII antibody)?
**A.** 3 fold
